Biological target: T1, human capsaicin receptor (Homo sapiens, UniProt Q8NER1)
T1 construct: pBK-CMV expression construct encoding the full length human capsaicin receptor; expressed in transfected cells
Assay: Calcium mobilization assay, determination of antagonist activity (Example 6)
Format: cell-based
Conditions: Table II; determined as described in Example 6 (antagonist activity); "*" = 1 micromolar or less
Summary of the method: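 Antagonism measured as inhibition of capsaicin-evoked (final concentration = EC50, from an 8-point 1 nM–3 μM curve) Fluo-3 calcium signal in stable hVR1-HEK293 cells. Test compounds at 1–5 μM final, 0.5–6 h dark preincubation at room temperature. IC50 = concentration giving 50% reduction versus agonist-only response.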

T1 sequence (Q8NER1 whole entry): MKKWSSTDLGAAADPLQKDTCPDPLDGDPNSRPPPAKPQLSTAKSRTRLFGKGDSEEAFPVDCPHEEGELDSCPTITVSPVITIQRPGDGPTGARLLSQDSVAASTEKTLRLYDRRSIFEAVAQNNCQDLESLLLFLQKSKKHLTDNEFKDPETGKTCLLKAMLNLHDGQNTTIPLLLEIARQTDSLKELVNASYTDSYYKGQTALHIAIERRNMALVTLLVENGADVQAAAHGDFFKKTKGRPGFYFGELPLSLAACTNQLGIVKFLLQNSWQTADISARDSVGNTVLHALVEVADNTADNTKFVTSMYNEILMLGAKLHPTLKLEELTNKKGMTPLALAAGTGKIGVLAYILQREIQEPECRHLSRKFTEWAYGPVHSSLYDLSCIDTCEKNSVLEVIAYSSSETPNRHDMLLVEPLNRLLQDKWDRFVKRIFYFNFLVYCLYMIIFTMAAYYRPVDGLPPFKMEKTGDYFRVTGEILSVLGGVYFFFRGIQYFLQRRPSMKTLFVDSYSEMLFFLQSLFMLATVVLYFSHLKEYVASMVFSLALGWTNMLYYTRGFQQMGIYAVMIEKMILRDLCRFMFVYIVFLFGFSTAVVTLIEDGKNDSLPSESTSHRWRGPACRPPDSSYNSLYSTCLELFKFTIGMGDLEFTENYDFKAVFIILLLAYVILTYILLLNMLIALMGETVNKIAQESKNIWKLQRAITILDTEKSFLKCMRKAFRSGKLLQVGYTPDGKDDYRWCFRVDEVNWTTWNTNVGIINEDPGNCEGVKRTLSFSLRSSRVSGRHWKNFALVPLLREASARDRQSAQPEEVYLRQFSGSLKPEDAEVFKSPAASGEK

SMILES | IC50
CC(=O)Nc1cnc(N2CCN(c3cc(-c4ccc(F)c(Cl)c4)nc(N4CCCC4C)n3)CC2)c(C)c1 (centres unmarked) [Example 816, N-(6-{4-[6-(3-chloro-4-fluorophenyl)-2-(2-methylpyrrolidin-1-yl)pyrimidin-4-yl]piperazin-1-yl}-5-methylpyridin-3-yl)acetamide] | ≤ 1 µM
Cc1cc(NS(C)(=O)=O)cnc1N1CCN(c2cc(-c3ccc(F)c(Cl)c3)nc(N3CCCC3C)n2)CC1 (centres unmarked) [Example 817, N-(6-{4-[6-(3-chloro-4-fluorophenyl)-2-(2-methylpyrrolidin-1-yl)pyrimidin-4-yl]piperazin-1-yl}-5-methylpyridin-3-yl)methanesulfonamide] | ≤ 1 µM
COc1cnc(N2CCN(c3cc(-c4ccc(F)c(Cl)c4)nc(N4CCCC4C)n3)CC2)c(C)c1 (centres unmarked) [Example 818, 4-(3-chloro-4-fluorophenyl)-6-[4-(5-methoxy-3-methylpyridin-2-yl)piperazin-1-yl]-2-(2-methylpyrrolidin-1-yl)pyrimidine] | ≤ 1 µM
CCCN1CCN(c2nc(-c3ccc(F)c(Cl)c3)cc(N3CCN(c4ncc(N)cc4C)CC3)n2)CC1 [Example 819, 6-{4-[6-(3-chloro-4-fluorophenyl)-2-(4-propylpiperazin-1-yl)pyrimidin-4-yl]piperazin-1-yl}-5-methylpyridin-3-amine] | ≤ 1 µM
C[C@@H]1CN(c2nccnc2Cl)CCN1c1cc(-c2ccc(F)c(F)c2)nc(N2CCCC2)n1 [Example 820, 4-[(2R)-4-(3-chloropyrazin-2-yl)-2-methylpiperazin-1-yl]-6-(3,4-difluorophenyl)-2-pyrrolidin-1-ylpyrimidine] | ≤ 1 µM
CC1CCCN1c1nc(-c2ccc(F)c(F)c2)cc(N2CCN(c3nccnc3Cl)C[C@H]2C)n1 (some centres unmarked) [Example 821, 4-[4-(3-chloropyrazin-2-yl)-2-methylpiperazin-1-yl]-6-(3,4-difluorophenyl)-2-(2-methylpyrrolidin-1-yl)pyrimidine] | ≤ 1 µM
C[C@@H]1CN(c2nccnc2Cl)CCN1c1cc(-c2ccc(F)c(F)c2)nc(N2CCOCC2)n1 [Example 822, 4-[4-[(2R)-4-(3-chloropyrazin-2-yl)-2-methylpiperazin-1-yl]-6-(3,4-difluorophenyl)pyrimidin-2-yl]morpholine] | ≤ 1 µM
CC1CCCN1c1nc(-c2ccc(F)c(Cl)c2)cc(N2CCN(c3ncc(C(=O)N(C)C)cc3Cl)CC2)n1 (centres unmarked) [Example 824, 5-chloro-6-{4-[6-(3-chloro-4-fluorophenyl)-2-(2-methylpyrrolidin-1-yl)pyrimidin-4-yl]piperazin-1-yl}-N,N-dimethylnicotinamide] | ≤ 1 µM
CNC(=O)c1cnc(N2CCN(c3cc(-c4ccc(F)c(Cl)c4)nc(N4CCCC4C)n3)CC2)c(Cl)c1 (centres unmarked) [Example 825, 5-chloro-6-{4-[6-(3-chloro-4-fluorophenyl)-2-(2-methylpyrrolidin-1-yl)pyrimidin-4-yl]piperazin-1-yl}-N-methylnicotinamide] | ≤ 1 µM
C[C@@H]1CN(c2ccncc2Cl)CCN1c1cc(-c2ccc(F)c(F)c2)nc(Cl)n1 [Example 826, 2-chloro-4-[(2R)-4-(3-chloropyridin-4-yl)-2-methylpiperazin-1-yl]-6-(3,4-difluorophenyl)pyrimidine] | ≤ 1 µM
CC1CCCN1c1nc(-c2ccc(F)c(F)c2)cc(N2CCN(c3ccncc3Cl)C[C@H]2C)n1 (some centres unmarked) [Example 828, 4-[4-(3-chloropyridin-4-yl)-2-methylpiperazin-1-yl]-6-(3,4-difluorophenyl)-2-(2-methylpyrrolidin-1-yl)pyrimidine] | ≤ 1 µM
C[C@@H]1CN(c2ccncc2Cl)CCN1c1cc(-c2ccc(F)c(F)c2)nc(N2CCCC2)n1 [Example 829, 4-[(2R)-4-(3-chloropyridin-4-yl)-2-methylpiperazin-1-yl]-6-(3,4-difluorophenyl)-2-pyrrolidin-1-ylpyrimidine] | ≤ 1 µM
C[C@@H]1CN(c2ncccc2Cl)CCN1c1cc(-c2ccc(Cl)c(F)c2)nc(N2CCCC2)n1 [Example 833, 4-(4-chloro-3-fluorophenyl)-6-[(2R)-4-(3-chloropyridin-2-yl)-2-methylpiperazin-1-yl]-2-pyrrolidin-1-ylpyrimidine] | ≤ 1 µM
CC1CCCN1c1nc(-c2ccc(Cl)c(F)c2)cc(N2CCN(c3ncccc3Cl)C[C@H]2C)n1 (some centres unmarked) [Example 834, 4-(4-chloro-3-fluorophenyl)-6-[4-(3-chloropyridin-2-yl)-2-methylpiperazin-1-yl]-2-(2-methylpyrrolidin-1-yl)pyrimidine] | ≤ 1 µM
C[C@@H]1CN(c2ncccc2Cl)CCN1c1cc(-c2ccc(Cl)c(F)c2)nc(N2CCOCC2)n1 [Example 835, 4-{4-(4-chloro-3-fluorophenyl)-6-[(2R)-4-(3-chloropyridin-2-yl)-2-methylpiperazin-1-yl]pyrimidin-2-yl}morpholine] | ≤ 1 µM
C[C@@H]1CN(c2ncccc2Cl)CCN1c1cc(-c2cncc(Cl)c2)nc(N2CCOCC2)n1 [Example 837, 4-{4-(5-chloropyridin-3-yl)-6-[(2R)-4-(3-chloropyridin-2-yl)-2-methylpiperazin-1-yl]pyrimidin-2-yl}morpholine] | ≤ 1 µM

The remaining lines, values ahead:

IC50 | SMILES
≤ 1 µM | [O-][n+]1ccc(-c2nc(-c3ccc(F)c(Cl)c3)cc(N3CCN(c4ncccc4C(F)(F)F)CC3)n2)cc1 [Example 813, 4-(3-chloro-4-fluorophenyl)-2-(1-oxidopyridin-4-yl)-6-{4-[3-(trifluoromethyl)pyridin-2-yl]piperazin-1-nlyl}pyrimidine]
≤ 1 µM | Cc1cc(N)cnc1N1CCN(c2cc(-c3ccc(F)c(Cl)c3)nc(N3CCCC3C)n2)CC1 (centres unmarked) [Example 814, 6-{4-[6-(3-chloro-4-fluorophenyl)-2-(2-methylpyrrolidin-1-yl)pyrimidin-4-yl]piperazin-1-yl}-5-methylpyridin-3-amine]
≤ 1 µM | Cc1cc(O)cnc1N1CCN(c2cc(-c3ccc(F)c(Cl)c3)nc(N3CCCC3C)n2)CC1 (centres unmarked) [Example 815, 6-{4-[6-(3-chloro-4-fluorophenyl)-2-(2-methylpyrrolidin-1-yl)pyrimidin-4-yl]piperazin-1-yl}-5-methylpyridin-3-ol]
≤ 1 µM | Fc1ccc(-c2cc(N3CCN(c4ncccc4C(F)(F)F)CC3)nc(-c3ccccn3)n2)cc1Cl [Example 830, 4-(3-chloro-4-fluorophenyl)-2-pyridin-2-yl-6-{4-[3-(trifluoromethyl)pyridin-2-yl]piperazin-1-yl}pyrimidine]
≤ 1 µM | CCCN1CC[C@H](N(C)c2nc(-c3ccc(F)c(C)c3)cc(N3CCN(c4ncccc4C(F)(F)F)CC3)n2)C1 [Example 831, 4-(4-fluoro-3-methylphenyl)-N-methyl-N-[(3S)-1-propylpyrrolidin-3-yl]-6-{4-[3-(trifluoromethyl)pyridin-2-yl]piperazin-1-yl}pyrimidin-2-amine]
≤ 1 µM | O=C(O)C1CCCCN1c1nc(-c2ccc(F)c(Cl)c2)cc(N2CCN(c3ncccc3C(F)(F)F)CC2)n1 (centres unmarked) [Example 832, 1-(4-(3-chloro-4-fluorophenyl)-6-{4-[3-(trifluoromethyl)pyridin-2-yl]piperazin-1-yl}pyrimidin-2-yl)piperidine-2-carboxylic acid]
≤ 1 µM | CC1CCCN1c1nc(-c2ccc3c(c2)CN(C)CC3(C)C)cc(N2CCN(c3ncccc3C(F)(F)F)CC2)n1 (centres unmarked) [Example 836, 2,4,4-trimethyl-7-(2-(2-methylpyrrolidin-1-yl)-6-{4-[3-(trifluoromethyl)pyridin-2-yl]piperazin-1-yl}pyrimidin-4-yl)-1,2,3,4-tetrahydroisoquinoline]

From patent publication US7566712B2, “Biaryl piperazinyl-pyridine analogues” (Neurogen Corporation, priority 2003, dated 2009)
